Experimental data: patent US20160030416A1, “METHODS OF TREATING B2-BRADYKININ RECEPTOR MEDIATED ANGIOEDEMA” (SHIRE HUMAN GENETIC THERAPIES, INC., priority 2013, published 2016)
In brackets after ≈: the same amount, converted by molar mass. Several values for one entry are separate records, joined by “and”; a condition that tells them apart may be missing. Equal values may be shown once. Read-outs that look alike come from different tables or passages of the source.

What was measured:
[1] = Solubility of CFMQ in vehicles; format: physicochemical
Protocol: The physicochemical properties of 1-((4-Chloro-3-(((4-(4-fluoro-1H-pyrazol-1-yl)-2-methylquinolin-8-yl)oxy)methyl)-6-methylpyridin-2-yl)methyl)-2-oxo-1,2-dihydropyridine-3-carbonitrile (CFMQ) were determined using standard methods. CFMQ was a free base with a molecular weight of 514.9 Da and was a nonhygroscopic, crystalline powder with a melting point of about 214° C.

[2] = target: T1, μ (h) (MOP) (agonist site) (Homo sapiens, UniProt P35372); assay: Off-target receptor binding: μ (MOP)
T1 construct: expressed in transfected cells; host or cells: CHO or HEK 293 (not assigned per receptor)
Protocol: (§1) To determine the affinity to the B2-bradykinin receptor, CFMQ was compared to a diverse set of receptors and reference agents in an in vitro assay using cells from rat heart, urinary bladder, cerebral cortex, as well as human recombinant cells (CHO and HEK 293) and other cell lines. Each assay included a ligand at a specific concentration (concentration ranging from 0.007-10 nM), in addition to a non-specific ligand (concentration ranging from […]) for incubation periods ranging from 15 minutes to 6 hours at 4°-37° C. The specific binding to the receptors was defined as the difference between the total binding and the nonspecific binding, determined in the presence of an excess of unlabeled CFMQ. The concentration causing a half-maximal inhibition of control specific binding (IC50 values) and inhibition constants (Ki) were determined, and each reference compound was within the accepted limits of the historic average (±0.5 log units).

[3] = target: T2, BZD (peripheral) (Rattus norvegicus, UniProt P16257); assay: Off-target receptor binding: BZD (peripheral)
T2 construct: from tissue
Protocol: as §1

[4] = Bidirectional permeability in Caco-2 cells; format: in vitro ADME, human; details: human, 5 μM, 120 minutes
Protocol: (§2) To determine bidirectional permeability, CFMQ was examined in an in vitro incubation assay with […] (Caco-2 cell). CFMQ at 5 μM was dosed to the cell monolayers on the apical side (A-to-B) or basolateral side (B-to-A) and incubated at 37° C. with 5% CO2 for 120 minutes. Permeability of Lucifer Yellow (500 μM) was measured to ensure no damage was inflicted to the cell monolayers during the CFMQ flux period. All samples were assayed by LC-MS/MS using electrospray ionization.

[5] = system: Caco-2 cell; assay: Bidirectional permeability in Caco-2 cells; format: in vitro ADME, human
Protocol: as §2

[6] = Pharmacokinetics, single oral gavage, CD-1 mice; format: in vivo, female CD-1 mice; details: female, CD-1, mouse, plasma
Protocol: CFMQ (HGT3711) was administered to fasted female CD-1 mice (n=18/dose group) by a single oral gavage at 100, 250 and 450 mg/kg in a dose volume of 5 mL/kg in a spray-dried dispersion formulation (discussed below). Blood samples were taken via cardiocentesis or abdominal vein prior to administration and at 10, 30, 60 (1 hr), 120 (2 hr), 240 (4 hr) and 480 (8 hr) minutes post dose. Plasma concentrations of CFMQ (HGT3711) were determined by LC-MS/MS (liquid chromatography mass spectrometry) and concentrations below the limit of quantitation (3 ng/mL) were assigned a value of zero for pharmacokinetic analysis. Nominal dosing concentrations were used in all calculations.

[7] = Cross-over PK, IV and PO, cynomolgus monkeys; format: in vivo, male cynomolgus monkey
Protocol: A cross-over PK (pharmacokinetic) analysis was conducted in cynomolgus monkey. Two fasted male monkeys in each dose group received a single 1.0 mg/kg dose of CFMQ (HGT3711) by either IV (intravenous) or PO (oral) administration, with a 7-day washout period between each dose. The dose concentration was 1.0 mg/mL with a dose volume of 1.0 mL/kg. Blood samples were collected via the femoral vein at 0.083 (5 min), 0.25 (15 min), 0.5 (30 min), 1, 1.5, 2, 3, 4, 6, 8, 18 and 24 hours post-dose. Plasma concentrations of CFMQ (HGT3711) were determined by LC-MS/MS and concentrations below the limit of quantitation (2.5 ng/mL) were assigned a value of zero for pharmacokinetic analysis. Following oral administration of CFMQ (1 mg/kg), the concentration of CFMQ in plasma was below the limit of quantitation (BLQ=<2.5 ng/ml) at each sampling time point, preventing assessment of pharmacokinetic properties of CFMQ after oral administration in monkeys in this study. Table 11 summarizes the average PK properties for IV and PO dosed groups.

[8] = system: diverse set of receptors; assay: Receptor binding and selectivity panel
Protocol: as §1

[9] = 100 mg/kg, read-out: Average Concentration of HGT3711
[10] = 250 mg/kg, read-out: Average Concentration of HGT3711
[11] = 450 mg/kg, read-out: Average Concentration of HGT3711
[12] = 450 mg/kg, n = 2, read-out: Average Concentration of HGT3711
[13] = male, cynomolgus monkey, plasma, IV (1 mg/kg), Mean

T1 sequence (P35372 whole entry): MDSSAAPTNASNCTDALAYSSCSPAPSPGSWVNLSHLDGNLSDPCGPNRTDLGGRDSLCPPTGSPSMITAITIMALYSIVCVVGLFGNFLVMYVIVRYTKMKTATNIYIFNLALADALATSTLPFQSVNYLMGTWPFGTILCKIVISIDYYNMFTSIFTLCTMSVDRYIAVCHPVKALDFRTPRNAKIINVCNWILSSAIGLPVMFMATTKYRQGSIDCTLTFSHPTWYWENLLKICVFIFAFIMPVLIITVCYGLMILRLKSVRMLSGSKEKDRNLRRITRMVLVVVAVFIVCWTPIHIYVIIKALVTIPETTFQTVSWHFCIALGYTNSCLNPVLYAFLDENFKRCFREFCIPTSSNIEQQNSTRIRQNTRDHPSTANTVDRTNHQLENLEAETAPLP

solubility ([1]; 0.1 N HCl, simulated gastric fluid, HCl 0.1N, pH 1.3): 320 µg/mL (≈ 621 µM)
solubility ([1]; Labrasol (glyceryl and polyethylene glycol esters), aqueous with cosolvent or surfactant or cyclodextrin): 1430 µg/mL (≈ 2780 µM)
solubility ([1]; NaOH 0.1N, pH 12.8, aqueous buffer): < 10 µg/mL
solubility ([1]; PEG400 (polyethylene glycol 400), organic solvent or mixture): 2370 µg/mL (≈ 4600 µM)
solubility ([1]; Tween 20 (polyoxyethylene (20) sorbitan monolaurate), aqueous with cosolvent or surfactant or cyclodextrin): 870 µg/mL (≈ 1690 µM)
solubility ([1]; Tween 80 (polyoxyethylene (80) sorbitan monolaurate), aqueous with cosolvent or surfactant or cyclodextrin): 3500 µg/mL (≈ 6800 µM)
solubility ([1]; citrate/NaOH buffer, aqueous buffer, Citrate/NaOH pH 2): 20 µg/mL (≈ 38.8 µM)
solubility ([1]; citrate/NaOH buffer, aqueous buffer, Citrate/NaOH pH 5): < 10 µg/mL
solubility ([1]; ethanol, organic solvent or mixture): 170 µg/mL (≈ 330 µM)
solubility ([1]; glycerol, organic solvent or mixture): 10 µg/mL (≈ 19.4 µM)
solubility ([1]; olive oil, oil or lipid): < 10 µg/mL
solubility ([1]; organic solvent or mixture, Acetic acid, glacial): 19900 µg/mL (≈ 38600 µM)
solubility ([1]; phosphate buffer, pH 7, aqueous buffer): < 10 µg/mL
solubility ([1]; propylene glycol, organic solvent or mixture): 100 µg/mL (≈ 194 µM)
solubility ([1]; water): < 10 µg/mL
IC50 [2]: 6700 nM
Ki [2]: 2700 nM
nH [2]: 1.0
inhibition at 10 µM ([2]; CFMQ at 10 μM): 54%
IC50 [3]: 1400 nM
Ki [3]: 1200 nM
nH [3]: 1.7
inhibition at 10 µM ([3]; CFMQ at 10 μM): 93%
Papp A→B at 120 min, 5 μM ([4]; apical to basolateral, read-out: permeability coefficient A-to-B): 34 ×10⁻⁶ cm/s
Papp B→A at 120 min, 5 μM ([4]; basolateral to apical, read-out: permeability coefficient B-to-A): 38 ×10⁻⁶ cm/s
efflux [5]: no significant efflux
permeability classification [5]: highly permeable
AUC(0-inf) ([6]; 100 mg/kg): 10500 ng·h/mL
AUC(0-t) ([6]; 100 mg/kg): 10500 ng·h/mL
Cmax ([6]; 100 mg/kg): 5300 ng/mL
concentration at 10 min [6, 9]: 5300 ng/mL
concentration at 30 min [6, 9]: 4100 ng/mL
concentration at 60 min [6, 9]: 5170 ng/mL
concentration at 120 min [6, 9]: 2200 ng/mL
concentration at 240 min [6, 9]: 78 ng/mL
concentration at 480 min [6, 9]: 18 ng/mL
AUC(0-inf) ([6]; 250 mg/kg): 24500 ng·h/mL
AUC(0-t) ([6]; 250 mg/kg): 24400 ng·h/mL
Cmax ([6]; 250 mg/kg): 13300 ng/mL
concentration at 10 min [6, 10]: 6250 ng/mL
concentration at 30 min [6, 10]: 13300 ng/mL
concentration at 60 min [6, 10]: 10400 ng/mL
concentration at 120 min [6, 10]: 4570 ng/mL
concentration at 240 min [6, 10]: 854 ng/mL
concentration at 480 min [6, 10]: 45 ng/mL
AUC(0-inf) ([6]; 450 mg/kg): 40900 ng·h/mL
AUC(0-t) ([6]; 450 mg/kg): 40800 ng·h/mL
Cmax ([6]; 450 mg/kg): 15800 ng/mL
concentration at 10 min [6, 11]: 11600 ng/mL
concentration at 30 min [6, 11]: 14600 ng/mL
concentration at 60 min [6, 12]: 15800 ng/mL
concentration at 120 min [6, 12]: 6440 ng/mL
concentration at 240 min [6, 11]: 3370 ng/mL
concentration at 480 min [6, 11]: 88 ng/mL
Vz as fold of the total body water (0.69 L/kg) ([7]; IV 1 mg/kg): 4.32 fold
systemic clearance as % of monkey hepatic blood flow (2.62 L/hr/kg) ([7]; IV 1 mg/kg): 57.63%
ACU(0-∞) ([7]; IV (1 mg/kg), Mean): 693.99 μg/L*hr
CLz ([7]; IV (1 mg/kg), Mean, 1 mg/kg): 25.2 ± 6.83 mL/min/kg and 25.2 mL/min/kg
t1/2z ([7]; IV (1 mg/kg), Mean, 1 mg/kg): 1.40 ± 0.24 h and 1.40 h
AUC(0-t) [7, 13]: 679 ng·h/mL
Cmax [7, 13]: 410 ng/mL
Tmax [7, 13]: 0.23 h
MRT inf ([7]; male, cynomolgus monkey, plasma, IV (1 mg/kg), Mean, read-out: MRT(0-∞)): 1.77 h
Cmax ([7]; male, cynomolgus, cynomolgus monkey, plasma, IV (1 mg/kg), Mean): 410 ± 107 ng/mL
Vd ([7]; male, cynomolgus, cynomolgus monkey, plasma, IV (1 mg/kg), Mean, read-out: Vz): 2.98 ± 0.55 L/kg
concentration of CFMQ in plasma ([7]; oral 1 mg/kg, at each sampling time point (below limit of quantitation)): < 2.5 ng/mL
oral bioavailability ([7]; oral 1 mg/kg, monkey): no bioavailability
binding selectivity for B2-bradykinin receptor [8]: selective
SMILES: Cc1cc(Cl)c(COc2cccc3c(-n4cc(F)cn4)cc(C)nc23)c(Cn2cccc(C#N)c2=O)n1 [CFMQ, 1-((4-Chloro-3-(((4-(4-fluoro-1H-pyrazol-1-yl)-2-methylquinolin-8-yl)oxy)methyl)-6-methylpyridin-2-yl)methyl)-2-oxo-1,2-dihydropyridine-3-carbonitrile]
